Measured values published in PubChem BioAssay (NCI).
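Interpolation was linear, between the two tested concentrations surrounding the appropriate level; five concentrations were tested over 48 hours in 96-well plates. At the GI50, growth is halved. TGI marks complete inhibition of growth.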

Legend:
Assay in all cases: NCI tumour cell line growth inhibition, 48 h; in the data active means GI50 below about 0.43 µM; inactive means the rest
786-0 renal = test system: 786-0 renal
DU-145 prostate = test system: DU-145 prostate
HCT-15 colon = test system: HCT-15 colon
HOP-62 NSCLC = test system: HOP-62 NSCLC
HOP-92 NSCLC = test system: HOP-92 NSCLC
HS 578T breast = test system: HS 578T breast
MCF7 breast = test system: MCF7 breast
MDA-MB-435 = test system: MDA-MB-435
NCI-H226 lung = test system: NCI-H226 lung
NCI/ADR-RES ovarian = test system: NCI/ADR-RES ovarian
OVCAR-8 ovarian = test system: OVCAR-8 ovarian
SF-268 CNS = test system: SF-268 CNS
SF-295 CNS = test system: SF-295 CNS
SK-MEL-5 melanoma = test system: SK-MEL-5 melanoma
SNB-19 CNS = test system: SNB-19 CNS
SNB-75 CNS = test system: SNB-75 CNS
SR leukemia = test system: SR leukemia

COc1ccc(C(=O)/C=C/c2cc3c(c(OC)c2)OCC(=O)N3)cc1
inactive: GI50 (786-0 renal) 3.36 µM | GI50 (DU-145 prostate) 2.74 µM | GI50 (HCT-15 colon) 1.92 µM | GI50 (HOP-62 NSCLC) 3.73 µM | GI50 (HOP-92 NSCLC) 1.27 µM | GI50 (HS 578T breast) 3.63 µM | GI50 (MCF7 breast) 2.32 µM | GI50 (MDA-MB-435) 3.11 µM | GI50 (NCI-H226 lung) 3.88 µM | GI50 (NCI/ADR-RES ovarian) 3.14 µM | GI50 (OVCAR-8 ovarian) 2.85 µM | GI50 (SF-268 CNS) 3.42 µM | GI50 (SF-295 CNS) 4.57 µM | GI50 (SK-MEL-5 melanoma) 2.88 µM | GI50 (SNB-19 CNS) 3.26 µM | GI50 (SNB-75 CNS) 1.66 µM | GI50 (SR leukemia) 1.05 µM
> 100 µM: TGI (786-0 renal) | TGI (DU-145 prostate) | TGI (HCT-15 colon) | TGI (HOP-62 NSCLC) | TGI (HS 578T breast) | TGI (MCF7 breast) | TGI (MDA-MB-435) | TGI (NCI-H226 lung) | TGI (NCI/ADR-RES ovarian) | TGI (OVCAR-8 ovarian) | TGI (SF-268 CNS) | TGI (SF-295 CNS) | TGI (SK-MEL-5 melanoma) | TGI (SNB-19 CNS) | TGI (SR leukemia)
11.5 µM: TGI (SNB-75 CNS)
17.7 µM: TGI (HOP-92 NSCLC)
